Assay results as given in article PMC12064818, “A general assay platform to study protein pharmacology using ligand-dependent structural dynamics” (Nature Communications, 2025).

Target: firefly luciferase (FLuc) (Photinus pyralis, UniProt P08659)
Assay: Thermal shift profiles (Thermofluor assay), FLuc;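 on Thermofluor FLuc, No ATP: normalized first derivative of fluorescence (dF/dT) at the stated temperature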
Assay type: binding
Parameters: unit of the concentration uncertain
Details: compound 100 (unit uncertain); for Thermofluor FLuc, ATP: ATP (2 (unit uncertain))

Chain of firefly luciferase (FLuc) (P08659 whole entry): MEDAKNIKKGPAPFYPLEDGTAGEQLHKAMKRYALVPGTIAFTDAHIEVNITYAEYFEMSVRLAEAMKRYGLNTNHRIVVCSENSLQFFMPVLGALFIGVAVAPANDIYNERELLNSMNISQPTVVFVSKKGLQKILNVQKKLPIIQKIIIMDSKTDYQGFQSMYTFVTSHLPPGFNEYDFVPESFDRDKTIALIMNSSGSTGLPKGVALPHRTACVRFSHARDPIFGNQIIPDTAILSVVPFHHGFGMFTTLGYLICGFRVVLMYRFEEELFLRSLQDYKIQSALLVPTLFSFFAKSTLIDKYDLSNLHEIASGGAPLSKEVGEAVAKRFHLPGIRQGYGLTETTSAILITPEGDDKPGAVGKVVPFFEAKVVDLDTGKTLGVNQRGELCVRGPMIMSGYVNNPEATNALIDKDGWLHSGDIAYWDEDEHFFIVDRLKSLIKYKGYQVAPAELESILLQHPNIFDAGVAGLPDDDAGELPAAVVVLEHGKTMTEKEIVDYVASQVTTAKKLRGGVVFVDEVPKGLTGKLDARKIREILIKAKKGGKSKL

Compound: CC(CNC(=O)C1CCN(C(=O)c2ncn3c2COC(c2ccccc2)C3)CC1)c1ccccc1 (centres unmarked) [NCGC 00449795]
- Thermofluor FLuc, No ATP (20.000 °C): 0.224
- Thermofluor FLuc, ATP (20.000 °C): 0.781
- Thermofluor FLuc, No ATP (20.993 °C): 0.114
- Thermofluor FLuc, ATP (20.993 °C): 0.794
- Thermofluor FLuc, No ATP (21.987 °C): 0.126
- Thermofluor FLuc, ATP (21.987 °C): 0.808
- Thermofluor FLuc, No ATP (22.980 °C): 0.133
- Thermofluor FLuc, ATP (22.980 °C): 0.818
- Thermofluor FLuc, No ATP (23.974 °C): 0.087
- Thermofluor FLuc, ATP (23.974 °C): 0.824
- Thermofluor FLuc, No ATP (24.967 °C): 0.106
- Thermofluor FLuc, ATP (24.967 °C): 0.824
- Thermofluor FLuc, No ATP (25.960 °C): 0.064
- Thermofluor FLuc, ATP (25.960 °C): 0.818
- Thermofluor FLuc, No ATP (26.954 °C): 0.085
- Thermofluor FLuc, ATP (26.954 °C): 0.807
- Thermofluor FLuc, No ATP (27.947 °C): 0.040
- Thermofluor FLuc, ATP (27.947 °C): 0.794
- Thermofluor FLuc, No ATP (28.940 °C): 0.026
- Thermofluor FLuc, ATP (28.940 °C): 0.78
- Thermofluor FLuc, No ATP (29.934 °C): 0.058
- Thermofluor FLuc, ATP (29.934 °C): 0.768
- Thermofluor FLuc, No ATP (30.927 °C): 0.042
- Thermofluor FLuc, ATP (30.927 °C): 0.757
- Thermofluor FLuc, No ATP (31.921 °C): 0.056
- Thermofluor FLuc, ATP (31.921 °C): 0.744
- Thermofluor FLuc, No ATP (32.914 °C): 0.053
- Thermofluor FLuc, ATP (32.914 °C): 0.724
- Thermofluor FLuc, No ATP (33.907 °C): 0.025
- Thermofluor FLuc, ATP (33.907 °C): 0.688
- Thermofluor FLuc, No ATP (34.901 °C): 0.000
- Thermofluor FLuc, ATP (34.901 °C): 0.633
- Thermofluor FLuc, No ATP (35.894 °C): 0.005
- Thermofluor FLuc, ATP (35.894 °C): 0.557
- Thermofluor FLuc, No ATP (36.887 °C): 0.023
- Thermofluor FLuc, ATP (36.887 °C): 0.463
- Thermofluor FLuc, No ATP (37.881 °C): 0.061
- Thermofluor FLuc, ATP (37.881 °C): 0.358
- Thermofluor FLuc, No ATP (38.874 °C): 0.092
- Thermofluor FLuc, ATP (38.874 °C): 0.252
- Thermofluor FLuc, No ATP (39.868 °C): 0.154
- Thermofluor FLuc, ATP (39.868 °C): 0.156
- Thermofluor FLuc, No ATP (40.861 °C): 0.218
- Thermofluor FLuc, ATP (40.861 °C): 0.078
- Thermofluor FLuc, No ATP (41.854 °C): 0.347
- Thermofluor FLuc, ATP (41.854 °C): 0.026
- Thermofluor FLuc, No ATP (42.848 °C): 0.433
- Thermofluor FLuc, ATP (42.848 °C): 0
- Thermofluor FLuc, No ATP (43.841 °C): 0.514
- Thermofluor FLuc, ATP (43.841 °C): 0
- Thermofluor FLuc, No ATP (44.835 °C): 0.555
- Thermofluor FLuc, ATP (44.835 °C): 0.021
- Thermofluor FLuc, No ATP (45.828 °C): 0.658
- Thermofluor FLuc, ATP (45.828 °C): 0.057
- Thermofluor FLuc, No ATP (46.821 °C): 0.723
- Thermofluor FLuc, ATP (46.821 °C): 0.105
- Thermofluor FLuc, No ATP (47.815 °C): 0.793
- Thermofluor FLuc, ATP (47.815 °C): 0.162
- Thermofluor FLuc, No ATP (48.808 °C): 0.830
- Thermofluor FLuc, ATP (48.808 °C): 0.225
- Thermofluor FLuc, No ATP (50.795 °C): 0.929
- Thermofluor FLuc, ATP (50.795 °C): 0.362
- Thermofluor FLuc, No ATP (51.788 °C): 0.936
- Thermofluor FLuc, ATP (51.788 °C): 0.434
- Thermofluor FLuc, ATP (52.782 °C): 0.507
- Thermofluor FLuc, No ATP (53.775 °C): 1.000
- Thermofluor FLuc, ATP (53.775 °C): 0.578
- Thermofluor FLuc, No ATP (54.768 °C): 0.997
- Thermofluor FLuc, ATP (54.768 °C): 0.643
- Thermofluor FLuc, No ATP (55.762 °C): 0.999
- Thermofluor FLuc, ATP (55.762 °C): 0.699
- Thermofluor FLuc, No ATP (56.755 °C): 0.989
- Thermofluor FLuc, ATP (56.755 °C): 0.743
- Thermofluor FLuc, No ATP (57.748 °C): 0.966
- Thermofluor FLuc, ATP (57.748 °C): 0.774
- Thermofluor FLuc, No ATP (58.742 °C): 0.936
- Thermofluor FLuc, ATP (58.742 °C): 0.793
- Thermofluor FLuc, No ATP (59.735 °C): 0.945
- Thermofluor FLuc, ATP (59.735 °C): 0.802
- Thermofluor FLuc, No ATP (60.729 °C): 0.960
- Thermofluor FLuc, ATP (60.729 °C): 0.805
- Thermofluor FLuc, No ATP (61.722 °C): 0.919
- Thermofluor FLuc, ATP (61.722 °C): 0.804
- Thermofluor FLuc, No ATP (62.715 °C): 0.915
- Thermofluor FLuc, ATP (62.715 °C): 0.801
- Thermofluor FLuc, No ATP (63.709 °C): 0.911
- Thermofluor FLuc, ATP (63.709 °C): 0.797
- Thermofluor FLuc, No ATP (65.695 °C): 0.892
- Thermofluor FLuc, ATP (65.695 °C): 0.793
- Thermofluor FLuc, No ATP (66.689 °C): 0.889
- Thermofluor FLuc, ATP (66.689 °C): 0.799
- Thermofluor FLuc, No ATP (68.676 °C): 0.909
- Thermofluor FLuc, ATP (68.676 °C): 0.827
- Thermofluor FLuc, No ATP (69.669 °C): 0.830
- Thermofluor FLuc, ATP (69.669 °C): 0.847
- Thermofluor FLuc, No ATP (70.662 °C): 0.839
- Thermofluor FLuc, ATP (70.662 °C): 0.865
- Thermofluor FLuc, No ATP (71.656 °C): 0.811
- Thermofluor FLuc, ATP (71.656 °C): 0.881
- Thermofluor FLuc, No ATP (72.649 °C): 0.810
- Thermofluor FLuc, ATP (72.649 °C): 0.893
- Thermofluor FLuc, No ATP (73.643 °C): 0.758
- Thermofluor FLuc, ATP (73.643 °C): 0.901
- Thermofluor FLuc, No ATP (74.636 °C): 0.788
- Thermofluor FLuc, ATP (74.636 °C): 0.906
- Thermofluor FLuc, No ATP (75.629 °C): 0.714
- Thermofluor FLuc, ATP (75.629 °C): 0.91
